The values that follow come from the kinase profiling compilation of Christmann-Franck et al. (2016).

One assay has as its target ATR (human) (UniProt Q13535). Briefly: Alphascreen.
The next assay has as its target CSF1R (human) (UniProt P07333). The experiment in a line: radiometric filter-binding kinase assay.
The target in the next assay is PDPK1 (human) (UniProt O15530). The experiment in a line: radiometric filter-binding kinase assay.
The target in a further assay is KDR (human) (UniProt P35968). The experiment in a line: radiometric filter-binding kinase assay.
The target in the next assay is AXL (human) (UniProt P30530). The experiment in a line: radiometric filter-binding kinase assay.
The next assay deals with TEK (human) (UniProt Q02763). The experiment in a line: radiometric filter-binding kinase assay.
The target in a further assay is MET (human) (UniProt P08581). The experiment in a line: radiometric filter-binding kinase assay.
A further assay deals with PRKDC (human) (UniProt P78527). Briefly: radiometric filter-binding kinase assay.
Sequence of PRKDC (human) (P78527 whole entry, looked up): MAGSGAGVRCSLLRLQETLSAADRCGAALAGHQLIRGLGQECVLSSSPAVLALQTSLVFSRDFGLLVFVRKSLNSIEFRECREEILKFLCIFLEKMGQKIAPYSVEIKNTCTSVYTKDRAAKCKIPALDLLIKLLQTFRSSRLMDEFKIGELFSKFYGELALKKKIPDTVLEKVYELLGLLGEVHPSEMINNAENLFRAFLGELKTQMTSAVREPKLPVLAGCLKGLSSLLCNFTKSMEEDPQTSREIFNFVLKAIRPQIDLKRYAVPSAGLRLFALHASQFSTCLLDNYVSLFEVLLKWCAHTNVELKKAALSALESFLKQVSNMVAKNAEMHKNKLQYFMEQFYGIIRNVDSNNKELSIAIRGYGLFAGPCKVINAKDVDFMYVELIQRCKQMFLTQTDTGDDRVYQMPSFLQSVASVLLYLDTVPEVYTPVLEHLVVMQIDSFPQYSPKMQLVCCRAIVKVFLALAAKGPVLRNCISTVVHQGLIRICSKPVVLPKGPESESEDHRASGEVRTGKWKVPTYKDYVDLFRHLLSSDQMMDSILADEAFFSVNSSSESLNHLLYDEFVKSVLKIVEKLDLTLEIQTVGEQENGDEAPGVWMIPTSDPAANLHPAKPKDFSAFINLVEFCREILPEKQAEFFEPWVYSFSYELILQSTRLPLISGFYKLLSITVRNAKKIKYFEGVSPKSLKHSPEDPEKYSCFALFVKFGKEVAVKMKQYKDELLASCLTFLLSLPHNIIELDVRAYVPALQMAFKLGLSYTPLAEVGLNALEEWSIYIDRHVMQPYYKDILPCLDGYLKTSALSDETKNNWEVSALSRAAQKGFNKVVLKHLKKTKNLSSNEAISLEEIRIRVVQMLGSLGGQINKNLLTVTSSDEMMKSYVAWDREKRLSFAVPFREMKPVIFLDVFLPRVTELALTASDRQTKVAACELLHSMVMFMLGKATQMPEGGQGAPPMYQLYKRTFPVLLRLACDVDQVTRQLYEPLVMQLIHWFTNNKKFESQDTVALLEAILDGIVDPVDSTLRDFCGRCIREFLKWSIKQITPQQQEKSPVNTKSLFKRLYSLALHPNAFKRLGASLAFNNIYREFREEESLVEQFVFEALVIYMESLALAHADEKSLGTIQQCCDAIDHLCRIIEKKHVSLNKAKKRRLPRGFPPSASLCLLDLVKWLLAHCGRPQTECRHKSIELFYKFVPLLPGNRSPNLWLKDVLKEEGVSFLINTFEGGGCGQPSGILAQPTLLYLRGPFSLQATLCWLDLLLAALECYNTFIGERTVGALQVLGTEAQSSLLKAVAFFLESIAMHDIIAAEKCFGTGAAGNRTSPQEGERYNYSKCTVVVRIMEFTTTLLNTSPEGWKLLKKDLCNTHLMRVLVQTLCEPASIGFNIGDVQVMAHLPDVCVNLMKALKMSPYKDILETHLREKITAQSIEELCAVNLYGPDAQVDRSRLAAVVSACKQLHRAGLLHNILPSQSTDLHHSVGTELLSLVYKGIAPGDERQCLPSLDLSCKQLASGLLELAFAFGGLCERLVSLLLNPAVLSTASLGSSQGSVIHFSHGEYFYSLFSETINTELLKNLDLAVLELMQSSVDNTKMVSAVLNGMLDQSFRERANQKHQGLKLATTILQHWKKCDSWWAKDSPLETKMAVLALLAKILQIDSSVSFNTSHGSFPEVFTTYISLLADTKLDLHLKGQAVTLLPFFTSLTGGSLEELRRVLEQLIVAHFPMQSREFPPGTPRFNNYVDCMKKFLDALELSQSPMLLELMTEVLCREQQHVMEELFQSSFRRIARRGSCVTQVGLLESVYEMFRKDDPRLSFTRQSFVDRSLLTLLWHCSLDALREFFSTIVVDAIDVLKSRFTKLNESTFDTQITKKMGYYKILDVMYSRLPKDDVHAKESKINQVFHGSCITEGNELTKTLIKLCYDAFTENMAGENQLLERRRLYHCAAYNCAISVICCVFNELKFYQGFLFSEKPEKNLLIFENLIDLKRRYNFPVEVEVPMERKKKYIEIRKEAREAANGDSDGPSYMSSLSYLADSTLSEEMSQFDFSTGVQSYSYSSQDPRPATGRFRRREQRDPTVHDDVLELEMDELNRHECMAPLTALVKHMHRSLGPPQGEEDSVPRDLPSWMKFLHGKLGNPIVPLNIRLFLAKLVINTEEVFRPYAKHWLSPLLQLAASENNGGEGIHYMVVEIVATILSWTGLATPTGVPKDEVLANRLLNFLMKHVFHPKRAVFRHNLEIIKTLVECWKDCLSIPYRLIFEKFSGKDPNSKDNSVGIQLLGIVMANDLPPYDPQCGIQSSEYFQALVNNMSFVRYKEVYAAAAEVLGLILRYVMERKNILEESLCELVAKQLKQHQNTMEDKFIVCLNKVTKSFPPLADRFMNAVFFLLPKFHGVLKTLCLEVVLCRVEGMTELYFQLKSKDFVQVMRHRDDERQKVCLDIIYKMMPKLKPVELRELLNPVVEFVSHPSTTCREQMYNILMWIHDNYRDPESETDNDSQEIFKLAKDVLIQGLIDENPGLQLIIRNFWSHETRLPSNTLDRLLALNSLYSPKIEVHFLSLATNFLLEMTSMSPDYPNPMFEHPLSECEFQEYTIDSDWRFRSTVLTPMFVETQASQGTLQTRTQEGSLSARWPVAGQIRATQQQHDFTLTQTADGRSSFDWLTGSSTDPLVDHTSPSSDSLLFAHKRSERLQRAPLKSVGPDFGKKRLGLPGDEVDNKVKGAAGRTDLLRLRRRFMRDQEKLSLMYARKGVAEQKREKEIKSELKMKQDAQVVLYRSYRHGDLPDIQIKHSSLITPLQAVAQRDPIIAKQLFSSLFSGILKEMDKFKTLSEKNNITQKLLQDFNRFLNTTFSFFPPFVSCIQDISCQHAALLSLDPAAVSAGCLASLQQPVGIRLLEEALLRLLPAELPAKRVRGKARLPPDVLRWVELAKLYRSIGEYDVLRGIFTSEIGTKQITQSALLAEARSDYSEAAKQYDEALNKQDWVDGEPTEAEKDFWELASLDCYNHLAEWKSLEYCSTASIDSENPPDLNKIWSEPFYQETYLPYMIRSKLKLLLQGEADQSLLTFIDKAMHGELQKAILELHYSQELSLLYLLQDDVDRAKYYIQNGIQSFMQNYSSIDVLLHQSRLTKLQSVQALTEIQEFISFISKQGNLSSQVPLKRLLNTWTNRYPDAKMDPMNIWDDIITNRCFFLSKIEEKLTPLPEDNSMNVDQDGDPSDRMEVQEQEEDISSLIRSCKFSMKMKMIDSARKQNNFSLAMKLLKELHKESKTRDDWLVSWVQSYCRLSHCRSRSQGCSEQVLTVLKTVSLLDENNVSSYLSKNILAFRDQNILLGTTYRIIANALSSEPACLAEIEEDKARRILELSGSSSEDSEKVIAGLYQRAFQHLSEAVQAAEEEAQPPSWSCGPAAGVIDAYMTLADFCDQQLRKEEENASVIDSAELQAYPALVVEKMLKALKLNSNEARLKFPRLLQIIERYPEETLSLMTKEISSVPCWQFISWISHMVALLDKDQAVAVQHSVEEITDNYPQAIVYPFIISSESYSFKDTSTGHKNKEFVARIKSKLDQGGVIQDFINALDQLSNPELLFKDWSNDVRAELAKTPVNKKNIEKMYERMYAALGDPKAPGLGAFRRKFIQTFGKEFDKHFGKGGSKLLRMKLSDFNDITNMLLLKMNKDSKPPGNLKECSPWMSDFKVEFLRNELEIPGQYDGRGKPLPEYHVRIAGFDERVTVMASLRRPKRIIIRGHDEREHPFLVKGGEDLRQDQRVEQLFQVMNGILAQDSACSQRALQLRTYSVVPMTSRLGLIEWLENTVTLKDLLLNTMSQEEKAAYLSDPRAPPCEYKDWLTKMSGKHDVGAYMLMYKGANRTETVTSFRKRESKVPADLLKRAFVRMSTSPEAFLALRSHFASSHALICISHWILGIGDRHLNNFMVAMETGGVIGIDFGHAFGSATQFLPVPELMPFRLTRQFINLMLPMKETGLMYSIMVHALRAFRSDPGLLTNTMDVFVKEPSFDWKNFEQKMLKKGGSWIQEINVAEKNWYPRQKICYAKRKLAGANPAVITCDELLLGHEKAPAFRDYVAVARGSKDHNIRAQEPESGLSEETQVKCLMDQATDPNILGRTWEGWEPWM
The subject of assay [1] is ABL1 (human), P00519 [H396P]. The experiment in a line: KINOMEscan competition binding. The conditions noted are these: compound 1.0 µM.
The target of the next assay is PIM1 (human) (UniProt P11309). The experiment in a line: KINOMEscan competition binding. Particulars: compound 1.0 µM.
Sequence of PIM1 (human) (P11309 whole entry, looked up): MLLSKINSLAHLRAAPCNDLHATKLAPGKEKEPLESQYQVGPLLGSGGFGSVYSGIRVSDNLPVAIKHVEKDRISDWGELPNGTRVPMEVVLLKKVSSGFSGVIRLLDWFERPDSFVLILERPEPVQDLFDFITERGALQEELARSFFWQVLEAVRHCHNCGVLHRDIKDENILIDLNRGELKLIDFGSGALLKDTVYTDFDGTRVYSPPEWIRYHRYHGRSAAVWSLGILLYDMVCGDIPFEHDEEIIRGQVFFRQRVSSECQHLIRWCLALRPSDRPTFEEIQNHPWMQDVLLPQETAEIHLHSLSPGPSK
Another assay addresses MAP2K4 (human) (UniProt P45985). The experiment in a line: KINOMEscan competition binding. The conditions noted are these: compound 1.0 µM.
Another assay addresses EPHA3 (human) (UniProt P29320). Briefly: KINOMEscan competition binding. Particulars: compound 1.0 µM.

pIC50: −log10 of the molar value.

Sequence of PDPK1 (human) (O15530 whole entry, looked up): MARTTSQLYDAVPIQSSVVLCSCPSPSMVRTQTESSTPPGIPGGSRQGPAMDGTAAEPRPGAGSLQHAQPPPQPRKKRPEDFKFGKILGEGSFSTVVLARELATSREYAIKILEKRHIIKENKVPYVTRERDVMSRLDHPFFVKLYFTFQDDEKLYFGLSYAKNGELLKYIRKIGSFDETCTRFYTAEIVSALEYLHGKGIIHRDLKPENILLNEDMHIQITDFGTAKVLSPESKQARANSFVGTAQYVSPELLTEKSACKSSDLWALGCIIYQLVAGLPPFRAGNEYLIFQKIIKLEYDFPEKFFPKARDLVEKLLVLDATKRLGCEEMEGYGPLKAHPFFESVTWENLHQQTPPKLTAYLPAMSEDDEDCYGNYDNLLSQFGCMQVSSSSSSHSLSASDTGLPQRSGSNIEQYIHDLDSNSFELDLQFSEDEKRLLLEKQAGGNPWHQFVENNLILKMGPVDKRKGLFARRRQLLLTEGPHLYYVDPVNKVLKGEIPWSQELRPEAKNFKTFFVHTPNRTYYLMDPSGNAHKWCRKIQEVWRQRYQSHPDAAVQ

In the case of `Nc1cc(C(F)(F)F)c(-c2cc(N3CCOCC3)nc(N3CCOCC3)n2)cn1`, the negative-log IC50 (pIC50) is 5.09 against ATR (human); 6.24 on CSF1R (human); less than 5.00 at PDPK1 (human); less than 5.00 on KDR (human); less than 5.00 on AXL (human); less than 5.00 at TEK (human). The pIC50 at MET (human) and at PRKDC (human) was less than 5.00 in each case. Moreover, the inhibition of binding in assay [1] amounted to 0%; at PIM1 (human), 2%; on MAP2K4 (human), 15%; on EPHA3 (human) it was 0%.

In general, pIC50 refers to the IC50 on a negative log10 scale, so that one unit is a factor of ten. A lower pIC50 goes with a high IC50.
